Data as given in ChEMBL document CHEMBL5344418, “Recent developments in antimalarial activities of 4-aminoquinoline derivatives” (Eur J Med Chem, 2023).

Assays:
[1] = tested on: Plasmodium berghei; assay: Antimalarial activity against Plasmodium berghei ANKA; assay type: functional, organism-based
[2] = tested on: Plasmodium falciparum; assay: Antiplasmodial activity against Plasmodium falciparum 3D7 assessed as reduction in parasite growth by Lactate dehydrogenase assay; assay type: functional, organism-based
[3] = tested on: Plasmodium falciparum; assay: Antimalarial activity against Plasmodium falciparum D6 assessed as reduction in parasite growth incubated for 48 hrs by LDH assay; assay type: functional, organism-based; settings: D6, 48 h
[4] = tested on: Plasmodium falciparum; assay: Antimalarial activity against Plasmodium falciparum W2 assessed as reduction in parasite growth incubated for 48 hrs by LDH assay; assay type: functional, organism-based; settings: W2, 48 h
[5] = Cytotoxicity against African green monkey Vero cells; assay type: toxicity, cell-based; settings: chlorocebus sabaeus
[6] = tested on: Plasmodium falciparum; assay: Antimalarial activity against Plasmodium falciparum K1 assessed as reduction in parasitic growth incubated for 48 hrs by Giemsa-staining counting based microscopic analysis; assay type: functional, organism-based; settings: K1, 48 h
[7] = Cytotoxicity against African green monkey Vero cells assessed as reduction in cell viability incubated for 48 hrs by MTT assay; assay type: toxicity, cell-based; settings: chlorocebus sabaeus
[8] = tested on: Plasmodium falciparum; assay: Antimalarial activity against Plasmodium falciparum 3D7 assessed as reduction in parasite growth incubated for 48 hrs by Giemsa-staining counting based microscopic analysis; assay type: functional, organism-based; settings: 3D7, 48 h
[9] = tested on: Plasmodium falciparum; assay: Antimalarial activity against Plasmodium falciparum assessed as reduction in parasite growth incubated for 48 hrs by Giemsa staining based analysis; assay type: functional, organism-based
[10] = tested on: HepG2; assay: Cytotoxicity against human HepG2 cells assessed as reduction in cell viability incubated for 24 hrs by MTT assay; assay type: functional
[11] = tested on: Plasmodium falciparum; assay: Antimalarial activity against multi-drug resistant Plasmodium falciparum K1 assessed as reduction in parasite growth incubated for 48 hrs by SYBR green assay; assay type: functional, organism-based; settings: K1, 48 h
[12] = tested on: Plasmodium falciparum; assay: Antimalarial activity against chloroquine-sensitive Plasmodium falciparum 3D7 assessed as reduction in parasite growth incubated for 48 hrs by SYBR green assay; assay type: functional, organism-based; settings: 3D7, 48 h
[13] = tested on: Plasmodium falciparum; assay: Antiplasmodial activity against Plasmodium falciparum K1; assay type: functional, organism-based
[14] = tested on: Plasmodium falciparum; assay: Antimalarial activity against Plasmodium falciparum Dd2 assessed as reduction in parasitic growth incubated for 48 hrs by SYBR green assay; assay type: functional, organism-based; settings: Dd2, 48 h
[15] = tested on: Plasmodium falciparum; assay: Antiplasmodial activity against Plasmodium falciparum NF54; assay type: functional, organism-based
[16] = Cytotoxicity against African green monkey Vero cells by MTT assay; assay type: toxicity, cell-based; settings: African green monkey (Chlorocebus sabaeus)
[17] = tested on: Plasmodium falciparum; assay: Antimalarial activity against chloroquine-sensitive Plasmodium falciparum NF54 assessed as reduction in cell growth; assay type: functional, organism-based
[18] = tested on: Plasmodium falciparum; assay: Antiplasmodial activity against chloroquine-resistant Plasmodium falciparum W2 assessed as parasitic growth inhibition incubated for 72 hrs by SYBR Green staining based fluorescence analysis; assay type: functional, organism-based; settings: W2, 72 h
[19] = tested on: Plasmodium falciparum; assay: Antiplasmodial activity against Plasmodium falciparum Dd2 infected in human Erythrocyte measured after 72 hrs by SYBR green fluorescence dye based microplate reader analysis; assay type: functional, organism-based
[20] = tested on: Plasmodium falciparum; assay: Antiplasmodial activity against chloroquine-sensitive Plasmodium falciparum 3D7 infected in human erythrocyte incubated for 72 hrs by SYBR green I staining based fluorescence assay; assay type: functional, organism-based; settings: 3D7, Erythrocyte
[21] = tested on: Plasmodium falciparum; assay: Antiplasmodial activity against Plasmodium falciparum Dd2 assessed as reduction in parasitic growth incubated for 48 hrs by SYBR Green staining based fluorescence analysis; assay type: functional, organism-based; settings: Dd2, 48 h
[22] = tested on: Plasmodium falciparum; assay: Antimalarial activity against Plasmodium falciparum assessed as parasitic growth inhibition; assay type: functional, organism-based
[23] = tested on: Plasmodium falciparum; assay: Antimalarial activity against Plasmodium falciparum Dd2 assessed as reduction in parasitic growth; assay type: functional, organism-based
[24] = tested on: Plasmodium falciparum; assay: Antiplasmodial activity against Plasmodium falciparum 3D7 assessed as inhibition of parasitic growth; assay type: functional, organism-based
[25] = tested on: Plasmodium falciparum; assay: Antimalarial activity against chloroquine-resistant Plasmodium falciparum W2 assessed as growth inhibition incubated for 48 hrs by flow cytometry based analysis; assay type: functional, organism-based; settings: W2, 48 h

Molecule COc1ccc(OC)c2c1CC(Nc1ccnc3cc(Cl)ccc13)C2 has an IC50 [1] of 0.48 µM.
O=C(O)/C=C/c1cccc(Nc2ccnc3cc(Cl)ccc23)c1 showed an IC50 [2] of 9.63 µM.
Molecule COC(=O)/C=C/c1cccc(Nc2ccnc3cc(Cl)ccc23)c1 has an IC50 [2] of 1.81 µM.
For COC(=O)/C=C/c1ccc(Nc2ccnc3cc(Cl)ccc23)cc1, the IC50 [2] was 3.22 µM.
For N=C(N=C(N)N)SCCNc1cc(C(F)(F)F)nc2c(C(F)(F)F)cccc12, the IC50 [3] was 7.55 µM, the IC50 [4] was 8.04 µM and the CC50 [5] was over 9.42 µM.
With CCOC(=O)c1nn(CCNc2ccnc3cc(Cl)ccc23)c2c1C(c1ccccc1)C(C#N)=C(N)O2 (centres undefined) the EC50 [6] was 0.25 µM, the CC50 at 48 h [7] was 103 µM and the EC50 [8] was 0.19 µM.
C[C@H](Cc1ccccc1)Nc1ccnc2cc(Cl)ccc12 showed an IC50 [1] of 0.49 µM.
With N=C(N=C(N)N)SCCCNc1cc(C(F)(F)F)nc2c(C(F)(F)F)cccc12 the IC50 [3] was 5.54 µM, the IC50 [4] was 7.21 µM and the CC50 [5] was over 9.17 µM.
CCOC(=O)c1nn(CCNc2ccnc3cc(Cl)ccc23)c2c1C(c1ccco1)C(C#N)=C(N)O2 (centres undefined) gave an EC50 [6] of 1.61 µM, a CC50 at 48 h [7] of 84.5 µM and an EC50 [8] of 0.113 µM.
Work on NC(S)=NNc1ccnc2cc(Cl)ccc12 yielded an IC50 [9] of 25.4 µM.
With C/C(=N\C(=S)NNc1ccnc2cc(Cl)ccc12)c1ccc2ccccc2c1 the IC50 [9] was 79.9 µM.
In the case of C#CCNc1ccnc2cc(Cl)ccc12, the MLD50 [10] is reported as 407 µM, the IC50 [11] is reported as 0.405 µM and the IC50 [12] is reported as 0.377 µM.
COc1ccc(C(=O)NNc2ccnc3cc(Cl)ccc23)cc1 showed an IC50 [13] of 1.13 µM.
Molecule COc1ccc2nc(/C=C/c3ccc([N+](=O)[O-])cc3)cc(N3CCN(C)CC3)c2c1 has an IC50 [14] of 0.452 µM.
With O=C(NCCCNc1ccnc2cc(Cl)ccc12)C(=O)Nc1cc2c(cc1Cl)-c1ccccc1C2 the IC50 [15] was 0.437 µM and the IC50 [16] was 26 µM.
Molecule COc1ccc2nc(/C=C/c3ccc([N+](=O)[O-])cc3)cc(N3CCCC3)c2c1 has an IC50 [14] of 0.493 µM.
For C[C@H]1[C@H](OC(=O)CCC(=O)O)O[C@@H]2O[C@@]3(C)CC[C@H]4[C@H](C)CC[C@@H]1[C@@]24OO3 [ARTESUNATE], the IC50 [17] was under 5.2 µM.
With COC(=O)/C=C/c1ccccc1Nc1ccnc2cc(OC)ccc12 the IC50 [2] was 15.3 µM.
O=C(O)/C=C/c1ccc(Nc2ccnc3cc(Cl)ccc23)cc1 showed an IC50 [2] of 18.5 µM.
For C=C[C@H]1CN2CC[C@H]1C[C@H]2[C@H](O)c1ccnc2ccc(OC)cc12 [QUININE], the IC50 [18] was 0.504 µM and the IC50 [13] was 0.83 µM.
For C[C@H]1[C@H](OC(=O)CCC(=O)NCCNc2ccnc3cc(Cl)ccc23)O[C@@H]2O[C@@]3(C)CC[C@H]4[C@H](C)CC[C@@H]1[C@@]24OO3, the EC50 [19] was 0.001 µM and the EC50 [20] was 0.0027 µM.
In the case of COc1ccc2nc(/C=C/c3ccncc3)cc(N3CCN(C)CC3)c2c1, the IC50 [21] is reported as 0.61 µM.
Cc1cc(C(=O)NNc2ccnc3cc(Cl)ccc23)c2ccccc2n1 showed an IC50 [13] of 0.09 µM.
With COC(=O)/C=C/c1ccccc1Nc1ccnc2cc(Cl)ccc12 the IC50 [2] was 2.32 µM.
NCCNc1ccnc2cc(Cl)ccc12 showed an MLD50 [10] of 179 µM, an IC50 [11] of 0.218 µM and an IC50 [12] of 0.273 µM.
O=C(O)CNc1ccnc2cc(Cl)ccc12 gave an MLD50 [10] of over 1000 µM, an IC50 [11] of over 10 µM and an IC50 [12] of over 10 µM.
For COc1ccc(/C(C)=N/C(=S)NNc2ccnc3cc(Cl)ccc23)cc1OC, the IC50 [9] was 38.7 µM.
For CCCCC1(CCCC)c2ccccc2-c2cc(Cl)c(NC(=O)CNCCCNc3ccnc4cc(Cl)ccc34)cc21, the IC50 [15] was 0.139 µM and the IC50 [16] was 15.9 µM.
For COc1ccc2nc(/C=C/c3ccncc3)cc(N3CCOCC3)c2c1, the IC50 [21] was over 10 µM.
Clc1ccc2c(NNc3ccncc3)ccnc2c1 showed an IC50 [22] of 3.75 µM.
COc1ccc2nc(/C=C/c3ccc([N+](=O)[O-])cc3)cc(N3CCOCC3)c2c1 showed an IC50 [14] of over 10 µM.
Molecule N#Cc1ccc2c(CNCCCNc3ccnc4cc(Cl)ccc34)csc2c1 has an IC50 [23] of 0.0186 µM and an IC50 [24] of 0.0502 µM.
CC1(C)c2ccccc2-c2cc(Cl)c(NC(=O)CNCCCNc3ccnc4cc(Cl)ccc34)cc21 gave an IC50 [15] of 0.27 µM and an IC50 [16] of 6.33 µM.
C[C@@H]1CC[C@H]2[C@@H](C)C(=O)O[C@@H]3O[C@@]4(C)CC[C@@H]1[C@]32OO4 [ARTEMISININ] gave an EC50 [6] of 0.001 µM, a CC50 at 48 h [7] of 435 µM and an EC50 [8] of 0.001 µM. It also gave an IC50 [25] of 0.005 µM.
With COc1ccc(/C(C)=N\c2ccccc2Nc2ccnc3cc(Cl)ccc23)cc1OC the IC50 [9] was 49.7 µM.
With N=C(N=C(N)N)SCCCNc1ccnc2cc(Cl)ccc12 the IC50 [4] was 2.13 µM and the CC50 [5] was over 11.4 µM.
For CCOC(=O)c1nn(CCNc2ccnc3cc(Cl)ccc23)c2c1C(c1ccc(CC)cc1)C(C#N)=C(N)O2 (centres undefined), the EC50 [6] was 0.02 µM, the CC50 at 48 h [7] was 17.6 µM and the EC50 [8] was 0.013 µM.
Work on Clc1ccc2c(NNc3cccnc3)ccnc2c1 yielded an IC50 [22] of 2.21 µM.
